Experimental data taken from patent US12630560B2, “Solid forms, pharmaceutical compositions and preparation of heteroaromatic macrocyclic ether compounds” (Nuvalent, Inc., priority 2021, dated 2026).
Structures can show the parent of a compound that is named as a salt.

Experiments:
Format in all cases: physicochemical
[1] = Stability study of Compound 1 (Form 1) drug substance at three storage conditions
Description: A stability study was conducted for Compound 1 (Form 1) at three storage conditions: (1) 5° C.±3° C., ambient relative humidity (RH), data collected at 0 and 1 month; (2) 25° C.±2° C., 60%±5% RH, data collected at 0, 1, 3, 6, 9, and 12 months; and (3) 40° C.±2° C., 75%±5% RH, data collected at 0, 1, 3, and 6 months.

[2] = Dynamic vapour sorption (DVS); settings: for weight increase (DVS): relative humidity from about 0 to about 90%, about 25° C.
Description: Approximately, 10-20 mg of sample was placed into a mesh vapour sorption balance pan and loaded into a DVS Advantage dynamic vapour sorption balance by Surface Measurement Systems. The sample was subjected to a ramping profile from 40-90% relative humidity (RH) at 10% increments, maintaining the sample at each step until a stable weight had been achieved (dm/dt 0.004%, minimum step length 30 minutes, maximum step length 500 minutes) at 25° C. After completion of the sorption cycle, the sample was dried using the same procedure to 0% RH and then a second sorption cycle back to 40% RH. Two cycles were performed. The weight change during the sorption/desorption cycles were plotted, allowing for the hygroscopic nature of the sample to be determined. XRPD analysis was then carried out on any solid retained.

[3] = Stability studies of Form A of a besylate salt (XRPD); settings: 40° C. and 75% RH for 7 days
Text: No changes in form were observed by XRPD.

[4] = 7-days stability studies of solid forms (storage, then XRPD and HPLC)
Description: Form 1 of Compound 1: Method. About 10 mg of Form 1 of Compound 1 was placed in a 2 ml vial and stored for 7 days under the following conditions: A) 40° C./75% RH (open vial); B) 25° C./60% RH (open vial); C) 80° C. (sealed vial). Solids were analyzed by XRPD and submitted for HPLC.
Form 2 of Compound 1: Method. Portions of Form 1 of Compound 1 (10 mg) were placed in 1.5 ml vials. One vial was stored for 7 days under each of the following conditions: A) 40° C./75% RH (open vial); B) 25° C./60% RH (open vial); C) 80° C. (sealed vial). Solids were analyzed by XRPD and submitted for HPLC.

[5] = Compression test at 100 and 250 MPa (XRPD after compression)
Description: Approximately 100 mg of Form 1 of Compound 1 was placed inside a FT-IR press, and a pressure of 100 MPa was applied and held for 60 seconds. The resulting material was analyzed by XRPD.
Approximately 100 mg of Form 1 of Compound 1 was placed inside the apparatus of the compression clamp. This apparatus was placed inside the compression clamp and a pressure of 250 MPa was applied and hold for 60 seconds. The resulting material was analyzed by XRPD.

CCn1ncc2c1-c1cnc(N)c(c1)O[C@H](C)c1cc(F)ccc1-c1nn(C)nc1C2 [Compound 1]
chemical and physical stability (description, assay, related substances, water content, polymorphic form, chiral purity) ([1]; 25° C.±2° C./60%±5% RH, 12 months): No meaningful changes | chemical and physical stability (description, assay, related substances, water content, polymorphic form, chiral purity) ([1]; 40° C.±2° C./75%±5% RH, 6 months): No meaningful changes | compliance with acceptance criteria (purity at least 97%, individual impurities ≤0.2%, total ≤2.0%, enantiomeric purity at least 99.5%, Form 1) ([1]; all time points): complied with the acceptance criteria

CCn1ncc2c1-c1cnc(N)c(c1)O[C@H](C)c1cc(F)ccc1-c1nn(C)nc1C2 [Form A of a besylate salt of Compound 1]
hygroscopicity [2]: hygroscopic | weight increase (DVS) [2]: about 2% | weight increase (DVS) ([2]; listed as Form A of a Besylate Salt of Compound 1): 2% | physical stability (form by XRPD) [3]: physically stable

CCn1ncc2c1-c1cnc(N)c(c1)O[C@H](C)c1cc(F)ccc1-c1nn(C)nc1C2 [Form 1 of Compound 1]
hygroscopicity [2]: non-hygroscopic | weight increase (DVS) [2]: about 0.25% | % Purity by HPLC ([4]; 25° C./60% RH (open vial), 7 days): 99.58% | % Purity by HPLC ([4]; 40° C./75% RH (open vial), 7 days): 99.66% | % Purity by HPLC ([4]; 80° C. (sealed vial), 7 days): 99.58% | stability of the solid form ([4]; all tested conditions (40° C./75% RH, 25° C./60% RH, 80° C.), 7 days): stable under all tested conditions | purity by HPLC after storage ([4]; all three samples: 40° C./75% RH, 25° C./60% RH, 80° C., one week): > 99.5% | stability to compression (crystalline form by XRPD) ([5]; 100 MPa for 60 seconds): stable | stability to compression (crystalline form by XRPD) ([5]; 250 MPa for 60 seconds): stable

CCn1ncc2c1-c1cnc(N)c(c1)O[C@H](C)c1cc(F)ccc1-c1nn(C)nc1C2 [Form 2]
solid form stability by XRPD ([4]; 25° C./60% RH, 7 days): stable | solid form stability by XRPD ([4]; 40° C./75% RH, 7 days): stable | solid form by XRPD after storage ([4]; 80° C. (sealed vial), 7 days): correspond to that for Form 7

CCn1ncc2c1-c1cnc(N)c(c1)O[C@H](C)c1cc(F)ccc1-c1nn(C)nc1C2 [Form 7]
weight increase (DVS) [2]: about 0.27%
